Source: paper PMC6934184, “Selective DNA-PKcs inhibition extends the therapeutic index of localized radiotherapy and chemotherapy” (The Journal of Clinical Investigation, 2019)

Target: T1, AURKC (Aurora C) (Homo sapiens, UniProt Q9UQB9)
T1 construct: purchased Thermo Fisher Scientific (Life Technologies) SelectScreen
Assay: SelectScreen Z'LYTE
Assay type: biochemical
In short: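 SelectScreen broad panel; activity (Z'LYTE, Adapta) plus binding formats. ATP: Km app for CSF1R Z'LYTE; 10 for CAMK1 Adapta. Readout = % per kinase.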

T1 sequence (Q9UQB9 whole entry): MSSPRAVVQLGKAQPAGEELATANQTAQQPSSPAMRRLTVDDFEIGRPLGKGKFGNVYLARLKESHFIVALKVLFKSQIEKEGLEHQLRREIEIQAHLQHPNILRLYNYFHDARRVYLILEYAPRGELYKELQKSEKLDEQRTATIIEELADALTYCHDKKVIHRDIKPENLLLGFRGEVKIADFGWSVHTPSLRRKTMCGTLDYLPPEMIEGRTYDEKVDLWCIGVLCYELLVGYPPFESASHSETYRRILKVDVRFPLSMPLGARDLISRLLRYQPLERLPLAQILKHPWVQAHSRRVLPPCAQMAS

CN(C(=O)CN1CCOCC1)c1ccc2sc3c(-c4cccc5c(=O)cc(N6CC7CCC(C6)O7)oc45)cccc3c2c1 [NU5455]
inhibition at 1 µM: -5.4%
